Experimental data: US10065965B2, “Imidazo[1,2-B][1,2,4]triazine derivatives as antiparasitic agents” (GlaxoSmithKline Intellectual Property Development Limited, priority 2015, dated 2018)
≈ marks a conversion by molar mass, not a printed value.

Key:
[1] = Assay 4 solubility assay, ChemiLuminescent Nitrogen Detection (CLND); assay type: physicochemical; conditions: phosphate buffered saline, pH 7.4, aqueous buffer, kinetic from dmso stock, pH 7.4 PBS, from 10 mM DMSO stock, 1 h at room temperature
Procedure: A 10 mM DMSO stock solution of the compound was prepared. Solvents and Buffers Organic solvents of HPLC grade were used. Ultra pure water (Milli-Q grade) was used. Buffers were prepared with ultra pure water and filtered using 0.45μ cameo filters. Aqueous Buffer Solution: Phosphate Buffer Saline (PBS) @ pH 7.4 was prepared from Sigma dry powder packs, P-3813. Each one was diluted to 1 liter with deionised water. The pH was checked before the solution was used II. Procedures. • a) DMSO concentration was measured. DMSO blanks and ondansetron and caffeine standards were added to the plate (column 12, A, B, C, & D for the blanks and E, F, G, & H for the standards). Plates were covered with foil. When the UV and CLND detectors baselines appeared to be stable, the CLND was zeroed. • b) Once DMSO concentration measurements were complete, a filtration plate was prepared from each parent plate by diluting 5 μl of the 10 mM DMSO stock solution to […] with pH7.4 PBS. • c) After the plates were prepared, they were covered with a plate lid and left to incubate for 1 h at room temperature. • d) Sample was filtered using MILLIPORE MultiScreen Solubility (MSSLBPC10) Filtration Plates, to NUNC V well plates. The filter plate was removed and the NUNC plate was sealed with a power seal plate seal. • e) HPLC/CLND instruments were set up and left to equilibrate. Mobile phases (MeOH:H2O 1:1, flow rate: 0.2 ml/min, sensitivity z10, Gain High). The samples were run. • f) The assay curve fit was done by linear regression and solubility values were reported in μM.

Trypanosoma cruzi = assay: Assay 6 Trypanosoma cruzi intracellular assay (infected H9C2 cells); assay type: cell-based; conditions: H9c2, in Rattus norvegicus, 72 h, infected H9C2 rat cardiomyocytes, read-out: pEC50 value against Trypanosoma cruzi (converted)
Procedure: Compounds were dispensed into black 384-well assay plates (Greiner) by acoustic dispensing (LabCyte ECHO). For potency determinations, eleven-point, one in three dilution curves were generated, with a top concentration of 50 μM. H9C2 rat cardiomyocytes cells were dispensed in T225 tissue culture flasks and after 4 hours they were infected during 18 hours with T. cruzi trypomastigotes in the same T225 tissue culture flasks at a multiplicity of infection of 1. Next, any remaining free trypomastigotes were washed away with PBS and the infected H9C2 cells were harvested by trypsinisation. The infected H9C2 cells were then plated into 384-well plates containing the compounds to be tested, at 2500 cells per well in DMEM media with 2% FBS, 1% Penicillin/Streptomocin, 2 mM L-Glutamine, 1 mM Na Pyruvate and 25 mM HEPES. After 72 h incubation at 37° C. in presence of 5% CO2, the plates were fixed and stained with 4% formaldehyde and 2 μM Draq5 for 3 hours at room temperature. The plates were imaged on a Perkin Elmer Opera high-content imaging system using a 20× air objective. Images were analysed using the Acapella building blocks system (Perkin Elmer). The image analysis algorithm first identified the H9C2 nuclei followed by demarcation of the cytoplasm and identification of intracellular amastigotes. This algorithm reported mean number of parasites per H9C2 cell, the percentage of infected H9C2 cells and the total number of H9C2 cells.

Row | SMILES | solubility at 1 h [1] [µM] | EC50 (Trypanosoma cruzi) [nM]
1 | CC(O)c1cnc2nc(-c3cc(NC(=O)N4CCCC4)ccc3F)cn2n1 (racemic) [Example 24, (+,−)-N-(4-fluoro-3-(2-(1-hydroxyethyl)imidazo [1,2-b][1,2,4]triazin-6-yl)phenyl)pyrrolidine-1-carboxamide] | 100 to 416 (≈ 37 to 154 µg/mL) | 5.01 to 631
2 | CC(C)=Cc1cnc2nc(-c3cc(NC(=O)N4CCCC4)ccc3F)cn2n1 [Example 47, N-(4-fluoro-3-(2-(2-methylprop-1-en-1-yl)imidazo[1,2-b][1,2,4]triazin-6-yl)phenyl) pyrrolidine-1-carboxamide] | 10 to 83 (≈ 3.8 to 31.6 µg/mL) | 5.01 to 631
3 | O=C(Nc1ccc(F)c(-c2cn3nc(CCCO)cnc3n2)c1)N1CCCC1 [Example 25, N-(4-fluoro-3-(2-(3-hydroxypropyl)imidazo [1,2-b][1,2,4]triazin-6-yl)phenyl)pyrrolidine-1-carboxamide] | 100 to 416 (≈ 38.4 to 160 µg/mL) | 5.01 to 631
4 | COc1ccccc1-c1cnc2nc(-c3cc(NC(=O)N4CCCC4)ccc3F)cn2n1 [Example 30, N-(4-fluoro-3-(2-(2-methoxyphenyl)imidazo [1,2-b][1,2,4]triazin-6-yl)phenyl)pyrrolidine-1-carboxamide] | 10 to 83 (≈ 4.32 to 35.9 µg/mL) | 5.01 to 631
5 | O=C(Nc1ccc(Cl)c(-c2cn3nc(N4CCOCC4)cnc3n2)c1)N1CCCC1 [Example 43, N-(4-chloro-3-(2-morpholinoimidazo[1,2-b][1,2,4]triazin-6-yl)phenyl)pyrrolidine-1-carboxamide] | 10 to 83 (≈ 4.28 to 35.5 µg/mL) | 5.01 to 631
6 | CC(=O)c1cnc2nc(-c3cc(NC(=O)N4CCCC4)ccc3F)cn2n1 [Example 46, N-(3-(2-acetylimidazo [1,2-b][1,2,4]triazin-6-yl)-4-fluorophenyl) pyrrolidine-1-carboxamide] | 100 to 416 (≈ 36.8 to 153 µg/mL) | 5.01 to 631
7 | O=C(Nc1ccc(F)c(-c2cn3nc(-c4ccccc4CN4CCOCC4)cnc3n2)c1)N1CCCC1 [Example 20, N-(4-fluoro-3-(2-(2-(morpholinomethyl)phenyl)imidazo[1,2-b] [1,2,4]triazin-6-yl)phenyl)pyrrolidine-1-carboxamide] | 10 to 83 (≈ 5.02 to 41.6 µg/mL) | 5.01 to 631
8 | C=C(C)c1cnc2nc(-c3cc(NC(=O)N4CCCC4)ccc3F)cn2n1 [Example 14, N-(4-fluoro-3-(2-(prop-1-en-2-yl)imidazo [1,2-b][1,2,4]triazin-6-yl)phenyl)pyrrolidine-1-carboxamide] | 10 to 83 (≈ 3.66 to 30.4 µg/mL) | 5.01 to 631
9 | CC(C)c1cnc2nc(-c3cc(NC(=O)N4CCCC4)ccc3F)cn2n1 [Example 13, N-(4-fluoro-3-(2-isopropylimidazo [1,2-b][1,2,4]triazin-6-yl)phenyl)pyrrolidine-1-carboxamide] | 100 to 416 (≈ 36.8 to 153 µg/mL) | 5.01 to 631
10 | O=C(Nc1cnc2nc(-c3cc(NC(=O)N4CCCC4)ccc3F)cn2n1)C1CCCO1 (stereo not drawn) [Example 49, N-(4-fluoro-3-(2-(tetra-hydrofuran-2-carboxamido)imidazo [1,2-b][1,2,4]triazin-6-yl)phenyl)pyrrolidine-1-carboxamide] | 10 to 83 (≈ 4.39 to 36.5 µg/mL) | 5.01 to 631
11 | O=C(Nc1ccc(F)c(-c2cn3nc(C4CCOC4)cnc3n2)c1)N1CCCC1 (racemic) [Example 23, (+,−)-N-(4-fluoro-3-(2-(tetrahydrofuran-3-yl)imidazo[1,2-b] [1,2,4]triazin-6-yl)phenyl)pyrrolidine-1-carboxamide] |  | 5.01 to 631
12 | O=C(Nc1ccc(F)c(-c2cn3nc(N4CCOCC4)cnc3n2)c1)N1CCC1 [Example 42, N-(4-fluoro-3-(2-morpholinoimidazo [1,2-b][1,2,4]triazin-6-yl)phenyl)azetidine-1-carboxamide] | 100 to 416 (≈ 39.7 to 165 µg/mL) | 5.01 to 631
13 | O=C(Nc1ccc(F)c(-c2cn3nc(N4CCCOCC4)cnc3n2)c1)N1CCCC1 [Example 11, N-(3-(2-(1,4-oxazepan-4-yl)imidazo[1,2-b][1,2,4]triazin-6-yl)-4-fluorophenyl)pyrrolidine-1-carboxamide] |  | 5.01 to 631
14 | COCCOc1ccccc1-c1cnc2nc(-c3cc(NC(=O)N4CCCC4)ccc3F)cn2n1 [Example 29, N-(4-fluoro-3-(2-(2-(2-methoxyethoxy)phenyl)imidazo[1,2-b][1,2,4]triazin-6-yl)phenyl) pyrrolidine-1-carboxamide] | 10 to 83 (≈ 4.77 to 39.6 µg/mL) | 5.01 to 631
15 | O=C(Nc1cnc2nc(-c3cc(NC(=O)N4CCCC4)ccc3F)cn2n1)C1CC1 [Example 58, N-(3-(2-(cyclopropane-carboxamido)imidazo [1,2-b][1,2,4]triazin-6-yl)-4-fluorophenyl) pyrrolidine-1-carboxamide] | 10 to 83 (≈ 4.09 to 34 µg/mL) | 5.01 to 631
16 | O=C(Nc1ccc(F)c(-c2cn3nc(-c4ccccn4)cnc3n2)c1)N1CCCC1 [Example 35, N-(4-fluoro-3-(2-(pyridin-2-yl)imidazo[1,2-b] [1,2,4]triazin-6-yl)phenyl)pyrrolidine-1-carboxamide] | 10 to 83 (≈ 4.03 to 33.5 µg/mL) | 5.01 to 631
17 | O=C(Nc1ccc(F)c(-c2cn3nc(N4CCNCC4)cnc3n2)c1)N1CCCC1 [Example 56, N-(4-fluoro-3-(2-(piperazin-1-yl)imidazo [1,2-b][1,2,4]triazin-6-yl)phenyl)pyrrolidine-1-carboxamide] | 100 to 416 (≈ 41 to 171 µg/mL) | 5.01 to 631
18 | COC(=O)Nc1cnc2nc(-c3cc(NC(=O)N4CCCC4)ccc3F)cn2n1 [Example 55, methyl (6-(2-fluoro-5-(pyrrolidine-1-carboxamido)phenyl)imidazo[1,2-b][1,2,4]triazin-2-yl)carbamate] | 10 to 83 (≈ 3.99 to 33.1 µg/mL) | 5.01 to 631
19 | Cc1c(-c2cccc(NC(=O)N3CCCC3)c2)nc2ncc(N3CCOCC3)nn12 [Example 28, N-(3-(7-methyl-2-morpholinoimidazo [1,2-b][1,2,4]triazin-6-yl)phenyl)pyrrolidine-1-carboxamide] | 100 to 416 (≈ 40.7 to 170 µg/mL) | 5.01 to 631
20 | O=C(Nc1ccc(F)c(-c2cn3nc(C4CCOCC4)cnc3n2)c1)N1CCCC1 [Example 15, N-(4-fluoro-3-(2-(tetrahydro-2H-pyran-4-yl)imidazo[1,2-b] [1,2,4]triazin-6-yl)phenyl)pyrrolidine-1-carboxamide] | 100 to 416 (≈ 41 to 171 µg/mL) | 5.01 to 631
21 | CC(C)Cc1cnc2nc(-c3cc(NC(=O)N4CCCC4)ccc3F)cn2n1 [Example 36, N-(4-fluoro-3-(2-isobutyl-imidazo[1,2-b][1,2,4]triazin-6-yl)phenyl) pyrrolidine-1-carboxamide] | 10 to 83 (≈ 3.82 to 31.7 µg/mL) | 5.01 to 631
22 | O=C(Nc1ccc(F)c(-c2cn3nc(C4=CCOCC4)cnc3n2)c1)N1CCCC1 [Example 12, N-(3-(2-(3,6-dihydro-2H-pyran-4-yl)imidazo[1,2-b] [1,2,4]triazin-6-yl)-4-fluorophenyl)pyrrolidine-1-carboxamide] | 10 to 83 (≈ 4.08 to 33.9 µg/mL) | 5.01 to 631
23 | O=C(Nc1ccc(F)c(-c2nc3ncc(N4CCOCC4)nn3c2F)c1)N1CCCC1 [Example 40, N-(4-fluoro-3-(7-fluoro-2-morpholinoimidazo [1,2-b][1,2,4]triazin-6-yl)phenyl)pyrrolidine-1-carboxamide] | 100 to 416 (≈ 42.9 to 179 µg/mL) | 5.01 to 631
24 | COCCOc1ccc(-c2cnc3nc(-c4cc(NC(=O)N5CCCC5)ccc4F)cn3n2)cc1 [Example 21, N-(4-fluoro-3-(2-(4-(2-methoxyethoxy)phenyl)imidazo[1,2-b][1,2,4]triazin-6-yl)phenyl) pyrrolidine-1-carboxamide] |  | 5.01 to 631
